According to PMC11816618, “Pharmacokinetic profile and in vivo anticancer efficacy of anagrelide administered subcutaneously in rodents” (Drug Delivery, 2025):
Read-outs that look alike come from different tables or passages of the source.

Assay: PK comparison between three administration routes (IV, PO, SC), plasma LC-MS/MS
Format: in vivo, Sprague-Dawley rats
Details: for Vd/F: read-out: Vz/F
Method: The rats were purchased from SPF Biotechnology Co. Ltd. (Beijing, China). Animals were acclimated to the test facility for at least three days, during which their general health was checked by veterinary staff or other authorized personnel. Animals were kept in polycarbonate cages containing absorbent corncob bedding, with a maintained temperature range of +20-25 °C and a 12-h light/dark cycle. Animals had access to food and drinking water ad libitum during acclimation and the experiment. At the end of the study, the rats were euthanized by exposure to an increasing concentration of CO2. […] The SC formulation was prepared by dissolving micronized ANA (5 μm particle size) in an oily triglyceride ester of saturated caprylic and capric fatty acids and glycerol (Miglyol® 810 N, IOI Oleo GmbH, Hamburg, Germany). […] To evaluate plasma concentration-time profiles, blood samples were collected from the jugular vein in EDTA tubes and stored at -70 °C until further analysis. […] In the second PK analysis in rats with a longer follow-up time, blood samples were collected at 0, 30 min, 1 […], and 56 d after dosage. SD rat plasma was analyzed for ANA, 3-OH-ANA, and RL603 concentrations by Pharmaron (Beijing, China). ANA, 3-hydroxy-anagrelide (CAS No. 733043-41-9, Cat. No. sc-206647, Santa Cruz Biotechnology, Inc., Dallas, TX), and RL603 (CAS No. 327602-34-6, Cat. No. sc-391661, Santa Cruz Biotechnology, Inc., Dallas, TX) were used as reference items in calibration standards and quality control (QC) samples. The HPLC and the MS/MS (LCMS-8060) instruments were both from SHIMADZU (Kyoto, Japan), and the column used was a Raptor Biphenyl column (2.7 μm, 50 × 2.1 mm, Restek, Bellefonte, PA). The desired serial concentrations of working solutions were achieved by diluting analyte stock solution with 50% acetonitrile in water. […] These QC samples were prepared on the day of analysis in the same way as calibration standards. Carbamazepine (CAS No. 298-46-4, Sigma-Aldrich, St. Louis, MO) was used as an internal standard for all analytes. Altogether, 55 μL of standards, 55 μL of QC samples, and 55 μL of test samples (comprising 50 μL of plasma and 5 μL of blank solution) were added to 200 μL of acetonitrile containing an internal standard mixture to precipitate protein. The samples were then vortexed for 30 seconds. After centrifugation at 4000 × g (+4 °C) for 5 min, the supernatant was diluted threefold with water, and 2 μL of the diluted supernatant was injected into the LC/MS/MS system for quantitative analysis. The transitions were 256.00-198.90 m/z for anagrelide hydrochloride, 272.00-198.95 m/z for 3-hydroxy anagrelide, 216.00-198.95 m/z for RL603, and 237.20-194.10 m/z for carbamazepine. […] Plasma drug concentration-time profiles were drawn by the average plasma concentrations at specific time points using Microsoft Excel (Redmond, WA). […] Certara, Princeton, NJ) software. Averages of each variable were used when PK values were compared.

[1] = SC 1.0 mg/kg vs IV 0.5 mg/kg, SD rats
[2] = Sprague-Dawley, rat, plasma, single ANA dose 0.5 mg/kg IV, male SD rats, n = 3, mean ± SD
[3] = Sprague-Dawley, rat, plasma, single ANA dose 1.0 mg/kg SC in miglyol, male SD rats, n = 5, mean ± SD
[4] = Sprague-Dawley, rat, plasma, single ANA dose 2.5 mg/kg PO, male SD rats, n = 3, mean ± SD
[5] = Sprague-Dawley, rat, analyte in plasma after single ANA dose 0.5 mg/kg IV, male SD rats, n = 3, mean ± SD
[6] = Sprague-Dawley, rat, analyte in plasma after single ANA dose 1.0 mg/kg SC in miglyol, male SD rats, n = 5, mean ± SD
[7] = Sprague-Dawley, rat, analyte in plasma after single ANA dose 2.5 mg/kg PO, male SD rats, n = 3, mean ± SD

## O=C1CN2Cc3c(ccc(Cl)c3Cl)N=C2N1 [Anagrelide, imidazo‐[2,1‐b] quinazolin‐2[3H]‐one, 6,7‐dichloro‐1,5‐dihydro, monohydro‐chloride]
[1]
  AUClast lower with SC than with IV: 36%
  increase of T1/2 with SC administration compared to IV: 25 fold
[2]
  MRT inf: 0.51 ± 0.08 h
  clearance: 31.9 ± 2.52 mL/min/kg
Sprague-Dawley, rat, plasma, single ANA dose 0.5 mg/kg IV, male SD rats, n = 3, mean ± SD, read-out: Vss
  Vd: 0.97 ± 0.1 L/kg
[3]
  CL/F: 101 ± 37.4 mL/min/kg
  MRT inf: 48.1 ± 22.7 h
  bioavailability: 33.5 ± 9.79%
  Vd/F: 218 ± 149 L/kg
[4]
  CL/F: 718 ± 125 mL/min/kg
  MRT inf: 6.38 ± 1.33 h
  bioavailability: 4.19 ± 0.7%
  Vd/F: 634 ± 338 L/kg
[5]
  AUC(0-inf): 262 ± 19.9 ng·h/mL
  AUC(0-t): 261 ± 19.8 ng·h/mL
  Cmax: 497 ± 17.5 ng/mL
  half-life: 1.09 ± 0.22 h
[6]
  AUC(0-inf): 187 ± 62 ng·h/mL
  AUC(0-t): 167 ± 57.1 ng·h/mL
  Cmax: 12.4 ± 3.14 ng/mL
  half-life: 27.3 ± 24.4 h
[7]
  AUC(0-inf): 59.3 ± 9.49 ng·h/mL
  AUC(0-t): 51.4 ± 7.09 ng·h/mL
  Cmax: 18 ± 2.59 ng/mL
  half-life: 10.1 ± 4.93 h
After IV 0.5 mg/kg, SD rats
  time to compound elimination from plasma: ≤ 6 h
After PO 2.5 mg/kg, SD rats
  decrease of plasma concentrations by the 8-h time point: approximately 90%
After SC 1.0 mg/kg, SD rats, except a few irregular observations near the quantification limit
  time point after which plasma concentrations were no longer detectable: 72 h
Analyte in plasma after single ANA dose 1.0 mg/kg SC in miglyol, male SD rats, n = 5, mean ± SD, 1 mg/kg
  Tmax: 0.80 ± 0.27 h
male, Sprague-Dawley, rat, plasma, iv, 0.5 mg/kg, analyte in plasma after single ANA dose 0.5 mg/kg IV, male SD rats, n = 3, mean ± SD, read-out: Tmax
  Tmax: 0.083 h
male, Sprague-Dawley, rat, plasma, po, 2.5 mg/kg, analyte in plasma after single ANA dose 2.5 mg/kg PO, male SD rats, n = 3, mean ± SD, read-out: Tmax
  Tmax: 1 h
male, Sprague-Dawley, rat, plasma, sc, 1 mg/kg, analyte in plasma after single ANA dose 1.0 mg/kg SC in miglyol, male SD rats, n = 5, mean ± SD, read-out: Tmax
  Tmax: 1 h
